In patent publication US9708292B2, “Cyanopyrimidine derivative” (OTSUKA PHARMACEUTICAL CO., LTD., priority 2009, dated 2017):
Structures can show the parent of a compound that is named as a salt. Where two headings read alike, the source gives them in different places. Blank lines part the entries; values can stand above or below the molecule they belong to.

Key:
[1] = molecular target: T1, adenosine A2a receptor (Human) (Homo sapiens, UniProt P29274); test: c-AMP generating action in cell expressing adenosine A2a receptor; type: cell-based
T1 construct: host or cells: HEK293
T1 sequence (P29274 whole entry): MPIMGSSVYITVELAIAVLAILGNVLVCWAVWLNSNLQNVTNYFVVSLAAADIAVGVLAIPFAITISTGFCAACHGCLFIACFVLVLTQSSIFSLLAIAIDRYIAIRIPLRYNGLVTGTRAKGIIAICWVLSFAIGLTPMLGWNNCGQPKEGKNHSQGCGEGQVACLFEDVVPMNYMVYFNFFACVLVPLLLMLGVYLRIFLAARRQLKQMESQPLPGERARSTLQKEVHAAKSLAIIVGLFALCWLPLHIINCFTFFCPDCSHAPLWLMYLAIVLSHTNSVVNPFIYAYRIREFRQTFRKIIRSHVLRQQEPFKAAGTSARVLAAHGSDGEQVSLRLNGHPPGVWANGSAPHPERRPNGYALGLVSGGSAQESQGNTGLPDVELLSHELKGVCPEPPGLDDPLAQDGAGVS
Method: Test 1: c-AMP Generating Action in Cell Expressing Adenosine A2a Receptor
The test was carried out as mentioned below with reference to the method disclosed in the reference (Klotz k. N. et al., Naunyn-Schmiedeberg's Arch. Pharmacol., (1998) 357, 1-9; Shryock J. C. et al., Molecular Pharmacology, (1998) 53, 886-893).
As to the cell to be used in the test, HEK293 cell expressing adenosine A2a receptor (Human) (PerkinElmer Life Sciences, Code No. RBHA2AC) was used.
As to the culture medium, Dulbecco's modified Eagles medium (DMEM) including 10% FBS (Fetal bovine serum) and 1 mM of sodium pyruvate was used.
The cell was placed on 96 well plate (1×10^5/well), and cultured overnight. After removing off the supernatant, 0.1 ml of DMEM (without FBS) containing 20 mM HEPES, 0.1 mM IBMX (3-isobutyl-1-methylxanthine) and 2 unit/mL adenosine deaminase were added to each well, and they were incubated at 37° C. for 30 minutes. Then, 0.1 ml of the culture medium containing the DMSO solution of the test compound in the predetermined concentration was added to each well, and they were incubated for additional 30 minutes. After removing off the supernatant, the cytolytic solution was added thereto to quench the reaction. The amount of c-AMP in each well was measured by using the c-AMP enzyme immunoassay (EIA) system (Amersham Biosciences, Code No. RPN225).
The same assay was repeated using CGS-21680 (2-p-carboxyethyl)phenethylamino-5′-N-ethylcarboxamidoadenosine hydrochloride, (Sigma, code C141) as a reference compound.
The amount of resultant c-AMP in the reference medium, caused by 1 μM of the reference compound, was defined to be 100%. The amount of resultant c-AMP in each test medium was measured, and the concentration producing 50% c-AMP amount was calculated based on the results of each test compound in the predetermined concentration, which is defined as EC50 value.

[2] = test system: Rabbit corneal epithelium cell; test: Effect on corneal epithelium cell after UVA irradiation (neutral red uptake assay); type: cell-based; settings: 60 min incubation, UVA 3.5 mW/cm^2 for 70 min, viability after 24 hours
Method: Test 2: Effect of the Compound of Example 1 to Corneal Epithelium Cell [Method]
Rabbit corneal epithelium cell (KURABO) was used as the cell for the test. To the rabbit corneal epithelium cell placed on 96 well plate was added the compound of Example 1, and the sample was incubated for 60 minutes. Then, the sample was irradiated with UVA (3.5 mW/cm^2) for 70 minutes using a solar simulator (SOL500). After that, the cell was washed with a buffer. After 24 hours, the cell viability was evaluated by the neutral red uptake assay.

[3] = test system: retinal ganglion cell (RGC); test: Neuroprotection: cell survival of purified retinal ganglion cells; type: cell-based, Long Evans rat; settings: five days of culture, control = 0%, BDNF (50 ng/mL) = 100%, Mean ± SE
Method: This experiment was performed according to a method reported by Otori et al. (Invest Opthalmol Vis Sci. 39: 972-981, 1998).
Eyes were enucleated from 7 day old Long Evans rat. Retinas were isolated from the eyes. The retinas were dissociated by incubating with Neurobasal medium including 15 U/mL papain at 37° C. for 30 minutes. The retinal suspension was prepared.
The retinal suspension was incubated in anti-SIRP antibody (Chemicon)-coated flask at room temperature for 30 minutes. The non adherent cells were placed in anti-thy-1 antibody (Chemicon)-coated flask. The cells were incubated at room temperature for 30 minutes. Finally the adherent cells in flask were washed with Neurobasal medium. After centrifugation at 800 rpm for 5 minutes, the purified RGC was prepared. The cells were seeded on glass coverslips that had been coated with poly-L-lysine and laminin. The purified RGC were cultured in Neurobasal medium containing B27 supplement, 1 mM glutamine 50 ng/mL CNTF, 10 μM Forskolin. Culture was maintained at 37° C. in humidified atmosphere containing 5% CO2 and 95%, air. BDNF (50 ng/mL) or the compound of Example 1 at final concentration of 0 nM (control), 3 nM, 10 nM or 30 nM was administered immediately after cell seeding.
Cell survival (cell viability) was determined by counting stained RGC. Five days after culture started, RGC were stained with 1 μM Calcein-AM (Molecular probe). The number of RGC was counted using fluorescence microscope. The percentage of cell survival (cell viability) was calculated by using the counts of control group as 0%, and the counts of BDNF group as 100%.
The cell survival was calculated by using the counts of control groups as 0% and the counts of BDNF groups as 100%.

[4] = test system: ciliary artery; test: Vascular relaxation of isolated ciliary artery contracted with High K+-krebs solution; parameters: species or system Rabbits
Method: Rabbits were sacrificed with an overdose of sodium pentobarbital by intravenous administration. The eyes were enucleated and ciliary arteries were isolated. Vascular rings were cut 2 mm in length from ciliary arteries and set to Danish Multi Myograph System 610M (Danish myo technology) under microscopic observation. The vessels were equilibrated in oxygenated krebs solution with 5% CO2 and 95% O2 at 37° C.
To confirm the endothelium damage of vessels, the relaxation of ciliary artery by 100 μM carbachol was tested. If relaxation by carbachol was more than 30%, the vessels whose endothelium had no damage were used for the experiments.
After ciliary artery was contracted with High K^+-krebs solution, the compound of Example 1 was serially administrated to chamber from 0.3 μM to 300 μM. The tension was measured by Myodaq ver 2.01 (Danish myo technology).

[5] = HEK293 cell expressing human adenosine A2a receptor, c-AMP by 1 μM CGS-21680 defined as 100%, read-out: A2a agonistic activity (EC50)

SMILES: CC(=O)Nc1ccc(-c2nc(SCc3cccc(CCC(=O)N4CCN(CC5CCN(CCF)CC5)CC4)n3)nc(N)c2C#N)cc1 [Example 4, N-(4-(6-amino-5-cyano-2-((6-(3-(4-((1-(2-fluoroethyl)-piperidin-4-yl)methyl)piperazin-1-yl)-3-oxopropyl)pyridin-2-yl)methylthio)pyrimidin-4-yl)phenyl)acetamide]
- EC50 [1]: 6.1 nM

SMILES: COC(=O)CCN1CCC(CN2CCN(C(=O)CCc3cccc(CSc4nc(N)c(C#N)c(-c5ccc(NC(C)=O)cc5)n4)n3)CC2)CC1 [Example 5, N-(4-(6-amino-5-cyano-2-((6-(3-(4-((1-(2-methoxy-carbonylethyl)piperidin-4-yl)methyl)piperazin-1-yl)-3-oxopropyl)pyridin-2-yl)methylthio)pyrimidin-4-yl)phenyl)-acetamide]
- EC50 [1, 5]: 8.4 nM

Second part, led by results:

- EC50 [1, 5]: 1.8 nM
SMILES: CC(=O)Nc1ccc(-c2nc(SCc3cccc(CCC(=O)N4CCN(CC5CCN(CCCO)CC5)CC4)n3)nc(N)c2C#N)cc1 [Example 3, N-(4-(6-amino-5-cyano-2-((6-(3-(4-((1-(3-hydroxy-propyl)piperidin-4-yl)methyl)piperazin-1-yl)-3-oxopropyl)-pyridin-2-yl)methylthio)pyrimidin-4-yl)phenyl)acetamide]

- EC50 [1, 5]: 3.3 nM
- EC50 ([4]; Oryctolagus cuniculus, rabbit ciliary artery rings, High K+ contraction): 17000 nM
SMILES: CC(=O)Nc1ccc(-c2nc(SCc3cccc(CCC(=O)N4CCN(CC5CCNCC5)CC4)n3)nc(N)c2C#N)cc1 [Example 1, N-(4-(6-amino-5-cyano-2-((6-(3-oxo-3-(4-(piperidin-4-yl-methyl)piperazin-1-yl)propyl)pyridin-2-yl)methylthio)-pyrimidin-4-yl)phenyl)acetamide trihydrochloride]
- cell viability ([2]; 0.25 mM): 106.3%
- cell viability ([2]; 0.5 mM): 115.0%
- cell viability ([2]; 1 mM): 100.7%
- Cell survival (%) ([3]; 3 nM): 10.9 ± 7.0%
- Cell survival (%) ([3]; 10 nM): 46.5 ± 7.0%
- Cell survival (%) ([3]; 30 nM): 41.9 ± 5.5%
- Relaxation (%) ([4]; 0.3 μM): 2.6 ± 0.5%
- Relaxation (%) ([4]; 1 μM): 4.8 ± 1.2%
- Relaxation (%) ([4]; 3 μM): 7.9 ± 2.3%
- Relaxation (%) ([4]; 10 μM): 35.3 ± 14.4%
- Relaxation (%) ([4]; 30 μM): 65.6 ± 9.5%
- Relaxation (%) ([4]; 100 μM): 82.4 ± 3.7%
- Relaxation (%) ([4]; 300 μM): 90.1 ± 2.4%

- EC50 [1, 5]: 2.9 nM
SMILES: CC(=O)Nc1ccc(-c2nc(SCc3cccc(CCC(=O)N4CCN(CC5CCN(CCO)CC5)CC4)n3)nc(N)c2C#N)cc1 [Example 2, N-(4-(6-amino-5-cyano-2-((6-(3-(4-((1-(2-hydroxyethyl)-piperidin-4-yl)methyl)piperazin-1-yl)-3-oxopropyl)pyridin-2-yl)methylthio)pyrimidin-4-yl)phenyl)acetamide maleate]
